# Measured values taken from patent US7960549B2, “Solid forms of a chemokine receptor antagonist and methods of use thereof” (priority 2004, dated 2011).
# Counter-ions that a name gives are not always drawn.
# Key:
# Type in all cases: physicochemical
# [1] = Controlled temperature (isothermal) X-ray powder diffraction: thermal stability of the crystalline form; conditions: isothermal scans at intervals of 10° C.
# Protocol: X-ray powder diffraction (XRPD) is performed on various samples of the Citrate Salt using one of three instruments. XRPD measurements with Instrument 1 utilize a Siemens-Bruker D5000 Matic powder diffractometer with a Bragg-Brentano (vertical θ-2θ configuration) parafocusing geometry. X-rays are produced from a sealed cobalt anode running at 40 kV and 30 mA. Two lines are typically emitted: CoKα1 (λ=1.7890 Å) and CoKα2 (λ=1.7929 Å). An iron β-filter limits the CoKβ (λ=1.6208 Å) radiation to about 1% of the diffracted beam at the detector. The primary beam passes through a parallel plate collimator (0.2 mm Soller slits), then through a divergence slit (0.2 mm). Diffracted X-rays are detected with a Braun 50 M multichannel linear detector having a 10°-wide detection window in angle 2θ. Scans are performed from 1.5° to 50.0° in 2θ, the scan time being 10 to 40 seconds per degree in 2θ. The error in the 2θ locations are typically within ±0.10 degrees.
# In Instrument 3, XRPD measurements are performed at different temperatures to elucidate the evolution of crystal structure with temperature. Tests are carried out with a Siemens-Bruker D5000 diffractometer equipped with the Bragg Brentano parafocusing (θ-θ) geometry and an Anton-Paar TTK temperature chamber. Measurements utilize dry nitrogen or nitrogen streams having a particular humidity. The instrument specifications are substantially similar to the Siemens-Bruker D5000 Matic instrument described above (Instrument 1). Temperature is allowed to rise at a rate of 0.05° C./sec. Scans are recorded under the following conditions: a 1.5 to 50.0 degree scan in angle 2θ, 10 to 20 seconds counting time per degree in 2θ. Data are acquired in isotherm mode when the requested temperature is reached.
# [2] = Thermal gravimetric analysis (TGA)
# Protocol: Measurements utilizing thermal gravimetric analysis (TGA) are carried out on a T.A. instruments TGAQ500 analyzer. Mass calibration is performed with 10 and 100 mg certified masses. Temperature calibration is performed with Alumel® and nickel standards (Curie points of respectively 154° C. and 354° C.). Samples are exposed to a constant nitrogen stream of 60 ml/min, and temperature ranges from room temperature to 350° C. at a 5° C./min rate. The quantity of product tested is between 2 and 13 mg. The sample is deposited in an open aluminum sample pan, which is itself placed in a platinum pan. The temperatures identified from TGA scans of a particular sample are accurate to within ±3° C. Simultaneous TGA and DSC measurements are carried out using a […] thermal analysis system produced by the […] corporation. A liquid nitrogen cooling system makes it possible to work at temperatures below 20° C. The emitted gases, upon sample heating, are carried by a transfer capillary tube to a Pfeiffer mass spectrometer, the capillary tube heated to 150° C. The mass spectrometer can analyze molecular fragments at <<m/e>> ratios between 1 and 200 uma. A sample with a mass between 1 and 27 mg is contained in an open concave aluminum sample pan (75 μL capacity) exposed to a nitrogen stream. The sample is heated at a rate of 1 or 5° C./min.
# [3] = Differential scanning calorimetry (DSC)
# Protocol: Differential scanning calorimetry (DSC) analyses are performed using a T.A Instruments Q1000 thermal analyser. Analyses are carried out using nitrogen purge gas flowing at an average rate of 50 ml/min. A mechanical compressor cools the system, and equilibrates the instruments being used at ambient temperature between analyses. […] Energy calibration is performed with a certified indium calibrator (melting enthalpy of 28.45 J/g), applying a heating rate of 5° C./min. The temperatures identified from DSC scans of a particular sample are accurate to within ±3° C. […] Modulated temperature differential scanning calorimetry (MTDSC) is also used since deconvolution of the total heat flow into reversing and non-reversing heat flows allows the transitions to be easily identified. The samples were submitted to the same experimental temperature program: after the equilibration of the sample at −5° C., the samples were heated through a modulated program from −5° C. to 210° C. at a rate of 1° C./min. […] Experiments are performed using crimped aluminium sample pans or open pans in some cases. The quantity of product analysed is typically between 2 and 13 mg.
# [4] = Water sorption/desorption cycling (dynamic vapor sorption, DVS) at 25° C., with XRPD before and after; conditions: 25° C.
# Protocol: Water sorption measurements are performed on a DVS-1 automated gravimetric vapor sorption analyser (Surface Measurement Systems Ltd., London, UK). The DVS-1 measures the uptake and loss of vapor gravimetrically using a Cahn D200 recording ultra-microbalance with a mass resolution of ±0.1 μg. The relative humidity around the sample is controlled by mixing saturated and dry carrier gas streams using mass flow controllers. The temperature is maintained within ±0.1° C. by enclosing the entire system in a temperature-controlled incubator. A sample size between 15 and 20 mg is used. In general, the error in % (w/w) identified in a tested sample is ±0.1% (w/w).
# Two protocols are utilized to operate the DVS. In one protocol, a sample is dried at 0% relative humidity (RH) to remove any surface water present and establish a dry, baseline mass. Next, the sample is exposed to the following relative humidity profile: 0%, 10%, 20%, 30%, 40%, 50%, 60%, 70%, 80%, 90%, 80%, 70%, 60%, 50%, 40%, 30%, 20%, 10%, 0%. In some instances, this profile is repeated, yielding 4 sets of data going up and down in RH. In another protocol, the sample is first equilibrated at 40% RH, then it was exposed to the following relative humidity profile: 40%, 50%, 60%, 70%, 80%, 90%, 100%, 90%, 80%, 70%, 60%, 50% 40% 30%, 20% 10%, 0%, 10%, 20%, 30%, 40%. […] If equilibrium state is not reached, the change in relative humidity took place automatically after 360 or 600 minutes. From the complete moisture sorption and desorption profile, an isotherm is calculated using the DVS Advanced Analysis Suite v3.6. All experiments were performed at 25° C.
# [5] = Prolonged exposure to fixed relative humidity or rinsing with water, XRPD before and after; conditions: week long exposure; ambient temperature
# [6] = heating rate 5° C./min, sample of the single form (Form H formed from Form E sample), ±3° C.
# [7] = heating rate 5° C./min, A, B, H: melting/decomposition, E: loss of water and conversion to Form H, ±3° C.
# [8] = mixture of Forms A and D, 0.3° C./min, Form D: conversion to Form A, Form A: melting/decomposition
# [9] = sample including Forms A and C, 5° C./min, Form C: conversion to Form A, Form A: melting/decomposition
compound,measurement,setting,value
"CC(C)(O)c1ccc2c(c1)/C(=C/CCN1CC[C@](O)(c3ccc(Cl)cc3)C(C)(C)C1)c1cccnc1CO2 [Form A, citrate salt of (S)-4-(4-Chloro-phenyl)-1-{3-[7-(1-hydroxy-1-methyl-ethyl)-11H-10-oxa-1-aza-dibenzo[a,d]cyclohepten-5-ylidene]-propyl}-3,3-dimethyl-piperidin-4-ol]",decomposition/melting observed with controlled temperature X-ray powder diffraction,[1],above 170 °C
same,TGA weight loss from ambient temperature to about 100° C.,[2]; heating rate 5° C./min,about 0.23 % (w/w)
same,TGA weight loss of the transition,"[2]; heating rate 5° C./min, sample of the single form (Form H formed from Form E sample)",about 27.5 % (w/w)
same,"TGA weight loss transition, interpolated beginning temperature",[2]; [6],about 164 °C
same,"TGA weight loss transition, temperature of maximum rate of weight loss",[2]; [6],183 °C
same,TGA weight loss,[2]; sample including Forms A and C,21.9 % (w/w)
same,"TGA weight loss, temperature of maximum rate of weight loss",[2]; sample including Forms A and C,183 °C
same,"TGA weight loss, interpolated beginning temperature","[2]; sample including Forms A and C, Form C: conversion away from Form C, Form A: decomposition/melting",168 °C
same,"DSC endothermic transition, Tmax",[3]; heating rate 1° C./min,167 °C
same,"DSC endothermic transition, interpolated beginning temperature",[3]; heating rate 1° C./min,164 °C
same,"DSC endothermic transition, Tmax",[3]; [7],176 °C
same,"DSC endothermic transition, interpolated beginning temperature",[3]; [7],169 °C
same,"DSC endothermic transition, Tmax",[3]; [8],166 °C
same,"DSC endothermic transition, interpolated beginning temperature",[3]; [8],about 160 °C
same,"DSC endothermic transition, Tmax",[3]; [9],178 °C
same,"DSC endothermic transition, interpolated beginning temperature",[3]; [9],about 173 °C
same,change in moles of water per mole of anhydrous crystal over relative humidity 0% to 90%,[4],about 0.8 moles of water per mole of anhydrous crystal
same,change in mass as the relative humidity is changed between 0% and 90%,"[4]; dry crystal basis, known to within ±0.1%",about 1.9%
same,XRPD before and after water sorption/desorption cycling,"[4]; two consecutive cycles, 0% to 90% relative humidity",no structural change
same,crystal form by XRPD after exposure to a relative humidity of 97.5%,[5],does not change form
